The test system of assay [1] is HER2 receptor. Kind of assay: HER2 scFv binding in cell-based assay (Alexa-fluor 488 labeled scFv). More on the design: species or system human. The method, then: (§1) As proof of concept, HER2 scFv binding and internalization in cell-based assays in vitro was carried out.
The target in assay [2] is T1, HER2 receptor (Homo sapiens, UniProt P04626).
T1 construct: endogenous in cells; host or cells: Sk-BR3, Sk-OV3 (HER2+); MCF7 (HER2-, negative control)
The experiment in a line: HER2 scFv ligand internalization in cell-based assay (pHrhodo label). As for the experimental part: as §1

In assay [3] the test system is HER2 receptor. The assay is described as above. More on the design: species or system human. To be noted: MCF7 HER2- cell line; FIG. 1F. As for the experimental part: as §1

This passage reports HER2 receptor engagement and ligand internalization results from patent publication US20240382432A1, “SINGLE CHAIN VARIABLE FRAGMENT (SCFV) MODIFIED LIPID NANOPARTICLE COMPOSITIONS AND USES THEREOF” (Generation Bio Co., priority 2021, published 2024).

For “trastuzumab-derived α-HER2 scFv: trastuzumab-derived single-chain variable fragment directed against HER2 (SEQ ID NO:1 core sequence)”, the HER2 receptor engagement entry is reported as “not in MCF7 cells” in assay [1] (MCF7 cells, do not express HER2 receptor (HER2-), FIG. 1C); “HER2 receptor engagement” in assay [1] (Sk-BR3 HER2 expressing (HER2+) cell line, FIG. 1A); “HER2 receptor engagement” in assay [1] (Sk-OV3 HER2 expressing (HER2+) cell line, FIG. 1B). Also, the ligand internalization result is “showed ligand internalization” in assay [2] (Sk-BR3 cells (HER2+), FIG. 1D); “showed ligand internalization” in assay [2] (Sk-OV3 cells (HER2+), FIG. 1E); “did not” in assay [3].
